Data set [1] has as its system SH-SY5Y. Put plainly: Neuroprotective activity in human SH-SY5Y cells assessed as inhibition of amyloid beta(1-42)-induced neurotoxicity at 0.1 to 10 uM incubated for 48 hrs by MTS assay. It is filed as functional, cell-based. (In general: Formazan colour is commonly taken as a measure of viable cells.)
A short description of data set [2]: Cytotoxicity against human SH-SY5Y cells assessed as reduction in cell viability at 10 uM after 48 hrs by MTS assay. The class given is cell-based.
The target in data set [3] is T1, Cholinesterase (Homo sapiens, UniProt P06276). Description: Inhibition of recombinant human BChE at 10 uM by Ellman method. Background: DTNB colorimetry detects thiols as they appear.
T1 sequence (P06276 whole entry): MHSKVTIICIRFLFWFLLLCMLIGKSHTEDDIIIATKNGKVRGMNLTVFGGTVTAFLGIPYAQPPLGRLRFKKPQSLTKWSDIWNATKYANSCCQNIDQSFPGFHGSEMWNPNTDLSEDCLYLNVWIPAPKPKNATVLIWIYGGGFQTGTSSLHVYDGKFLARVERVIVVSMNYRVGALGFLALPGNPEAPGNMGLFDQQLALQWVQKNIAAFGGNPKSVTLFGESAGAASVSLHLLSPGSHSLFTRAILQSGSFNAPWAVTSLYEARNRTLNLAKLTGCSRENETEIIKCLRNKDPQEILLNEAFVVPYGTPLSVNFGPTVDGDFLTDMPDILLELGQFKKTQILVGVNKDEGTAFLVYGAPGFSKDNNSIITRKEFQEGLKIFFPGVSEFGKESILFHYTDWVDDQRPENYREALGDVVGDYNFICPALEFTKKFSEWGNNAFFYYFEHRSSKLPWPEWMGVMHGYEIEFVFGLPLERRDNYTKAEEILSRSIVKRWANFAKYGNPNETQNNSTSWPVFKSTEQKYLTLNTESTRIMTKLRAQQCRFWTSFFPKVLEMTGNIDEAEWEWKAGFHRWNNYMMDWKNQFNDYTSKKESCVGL
The subject of data set [4] is SH-SY5Y. Put plainly: Neuroprotective activity in human SH-SY5Y cells assessed as inhibition of amyloid beta(1-42)-induced neurotoxicity at 0.1 to 10 uM incubated for 48 hrs by LDH release assay. The class given is functional, cell-based. For orientation: LDH in the medium is a marker of cell lysis.
In data set [5] the target is Cholinesterase (Mus musculus) (UniProt Q03311). Description: Inhibition of recombinant mouse BChE at 10 uM by Ellman method.
Sequence of Cholinesterase (Mus musculus) (Q03311 whole entry): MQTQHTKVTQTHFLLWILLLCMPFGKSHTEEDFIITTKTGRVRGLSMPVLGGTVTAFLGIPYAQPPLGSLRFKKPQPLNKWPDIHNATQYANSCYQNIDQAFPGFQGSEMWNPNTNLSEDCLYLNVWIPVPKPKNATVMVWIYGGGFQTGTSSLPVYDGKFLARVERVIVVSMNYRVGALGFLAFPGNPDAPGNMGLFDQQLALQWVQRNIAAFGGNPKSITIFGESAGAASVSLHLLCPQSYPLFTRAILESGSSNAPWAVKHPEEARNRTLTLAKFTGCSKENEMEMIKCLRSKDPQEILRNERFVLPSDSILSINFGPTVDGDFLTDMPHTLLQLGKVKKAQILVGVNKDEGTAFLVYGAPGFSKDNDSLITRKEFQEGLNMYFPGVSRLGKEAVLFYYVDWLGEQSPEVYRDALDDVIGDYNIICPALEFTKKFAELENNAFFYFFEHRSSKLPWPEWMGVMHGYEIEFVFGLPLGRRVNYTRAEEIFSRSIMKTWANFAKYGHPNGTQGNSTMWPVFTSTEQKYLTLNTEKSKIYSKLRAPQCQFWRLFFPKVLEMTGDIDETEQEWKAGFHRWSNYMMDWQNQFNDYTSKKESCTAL
The target of data set [6] is T2, Acetylcholinesterase (Mus musculus) (UniProt P21836).
T2 sequence (whole entry): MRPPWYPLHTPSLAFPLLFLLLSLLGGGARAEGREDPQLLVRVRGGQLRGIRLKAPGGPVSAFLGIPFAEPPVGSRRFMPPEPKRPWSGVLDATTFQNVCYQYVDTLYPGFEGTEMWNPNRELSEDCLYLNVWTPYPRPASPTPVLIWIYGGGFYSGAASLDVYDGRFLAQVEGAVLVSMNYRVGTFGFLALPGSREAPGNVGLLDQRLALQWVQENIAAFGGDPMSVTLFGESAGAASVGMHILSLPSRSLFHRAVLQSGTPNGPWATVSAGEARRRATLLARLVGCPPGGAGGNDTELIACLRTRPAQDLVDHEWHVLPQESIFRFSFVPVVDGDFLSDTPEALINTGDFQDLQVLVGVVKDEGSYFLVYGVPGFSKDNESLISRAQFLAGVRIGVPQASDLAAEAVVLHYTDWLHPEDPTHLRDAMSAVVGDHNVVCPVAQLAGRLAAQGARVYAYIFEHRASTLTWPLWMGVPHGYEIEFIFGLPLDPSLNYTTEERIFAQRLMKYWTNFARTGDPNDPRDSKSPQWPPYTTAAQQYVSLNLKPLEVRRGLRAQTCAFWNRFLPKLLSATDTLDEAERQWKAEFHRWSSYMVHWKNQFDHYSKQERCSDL
Description: Inhibition of recombinant mouse AChE assessed as residual activity at 10 uM by Ellman method.

For data set [7], the target named is T1, Cholinesterase.
Description: Inhibition of recombinant human BChE by Ellman method
The target in data set [8] is T3, Acetylcholinesterase (Mus musculus, UniProt P21836).
T3 sequence (P21836 whole entry): T2 sequence (whole entry)
Description: Inhibition of recombinant mouse AChE by Ellman method.

Data set [9] addresses T1, Cholinesterase. Description: Inhibition of recombinant human BChE at 50 nM by stopped flow apparatus method.

A word on the inhibition: it is how much of the control response was suppressed. Consider `COCCN(CC1CCCN(C2Cc3ccccc3C2)C1)C(=O)c1ccc2ccccc2c1` (racemic), for which the results for the Activity entry in [1], in [2] and in [4] were “Dose-dependent effect”, “Non-toxic” and “Dose-dependent effect”, respectively. In addition, the inhibition in [3] and in data set [5] was > 50% throughout.
As usually defined, the IC50 is the concentration that gives 50% inhibition. As for `CC(c1nc2ccccc2s1)N(C)C(=O)CN1CCCC1c1ccc2c(c1)OCCCO2` (centres undefined), the inhibition in data set [3] and in data set [5] was > 50% in each case. Further, the Activity in data set [6] was 94%. The compound further returned an IC50 in data set [7] of 1360 nM.
By Ki is commonly meant the dissociation constant of the complex between target and ligand, obtained from inhibition or displacement. Consider `COCCN(C[C@@H]1CCCN(C2Cc3ccccc3C2)C1)C(=O)c1ccc2ccccc2c1`, for which the IC50 is 101000 nM in [8] (read-out: IC50) and 13 nM in [7]. Also, the inhibitory constant (Ki) in [9] came to 2.71 nM.
Turning to `CCn1nc(C(=O)N2CCCC2)c2c1CCC(NCCc1nc(-c3ccccc3)cs1)C2` (centres undefined), the values for the IC50 result in [8] and in [7] were “Not Active” and 2150 nM, respectively. The inhibition in data set [3] and in [5] was > 50% throughout.
As to `COCCN(C[C@H]1CCCN(C2Cc3ccccc3C2)C1)C(=O)c1ccc2ccccc2c1`, the IC50 amounted to 110000 nM in data set [8] (read-out: IC50) and 166 nM in data set [7]. The Ki in data set [9] was 27 nM.

Source of the values: ChEMBL document CHEMBL3352549, “Discovery, biological evaluation, and crystal structure of a novel nanomolar selective butyrylcholinesterase inhibitor” (J Med Chem, 2014).
